Results taken from ChEMBL document CHEMBL1130154, “Molecular modeling and 3D-QSAR studies on the interaction mechanism of tripeptidyl thrombin inhibitors with human alpha-thrombin” (J Med Chem, 1997).
Square brackets hold non-standard residues; d marks the D form. Peptide text beside a SMILES is read from it. Tic = O=C(O)[C@@H]1Cc2ccccc2CN1

Target: Prothrombin (Homo sapiens, UniProt P00734)
Experiment: In vitro inhibitory activity against human Prothrombin

Structure (SMILES) | IC50
C[C@@H](C(=O)N1CCC[C@H]1C(=O)N[C@H](C=O)CCCNC(=N)N)c1ccccc1 | 94 nM
CC(C)(C)OC(=O)N[C@@H](C(=O)N1CCC[C@H]1C(=O)N[C@H](C=O)CCCNC(=N)N)c1cccc2ccccc12 | 23 nM
CC(C)(C)OC(=O)NC(C(=O)N1CCC[C@H]1C(=O)N[C@H](C=O)CCCN=C(N)N)c1cccc2ccccc12 (stereo in doubt; 12) | 55 nM
C[C@H](C(=O)N1CCC[C@H]1C(=O)N[C@H](C=O)CCCNC(=N)N)c1ccccc1 | 5100 nM
CO[C@@H](C(=O)N1CCC[C@H]1C(=O)N[C@H](C=O)CCCN=C(N)N)c1ccccc1 | 250 nM
CC[C@@H](C(=O)N1CCC[C@H]1C(=O)N[C@H](C=O)CCCNC(=N)N)c1ccccc1 | 130 nM
CC(C)(C)OC(=O)NC(C(=O)N1CCC[C@H]1C(=O)N[C@H](C=O)CCCN=C(N)N)c1cccc2ccccc12 (stereo in doubt; 13) | 85 nM
N=C(N)NCCC[C@@H](C=O)NC(=O)[C@@H]1CCCN1C(=O)[C@H]1NCCc2ccccc21 | 19 nM
CC(C)(C)OC(=O)N[C@@H](C(=O)N1CCC[C@H]1C(=O)N[C@H](C=O)CCCNC(=N)N)c1ccc2ccccc2c1 | 18 nM
N=C(N)NCCC[C@@H](C=O)NC(=O)[C@@H]1CCCN1C(=O)[C@@H]1Cc2ccccc2CN1 (H-[Tic]-Pro-Arg-aldehyde) | 25 nM
CC(C)(C)OC(=O)N[C@@H](C(=O)N1CCC[C@H]1C(=O)N[C@H](C=O)CCCN=C(N)N)c1cccc(C(F)(F)F)c1 | 27 nM
